Source: patent US6566580B1, “Neurological disease model” (priority 1996, dated 2003)
Several values for one entry are separate records, joined by “and”; a condition that tells them apart may be missing. Identical values can stand only once.

Experiments:
[1] = system: mice (mGluR7 -/-, +/-, +/+); assay: Pentylenetetrazol (PTZ)-induced seizures in mGluR7 knockout, heterozygote and wild-type mice; type: in vivo; conditions: PTZ 40 mg/kg i.p.
Description: Intraperitoneal (i.p.) injection of a normally subconvulsive dose of PTZ (40 mg/kg) induced seizures in 9 out of 9 homozygous mGluR7 knockout mice (age 9 months) as shown in the Table below.
This sensitivity to a subconvulsive dose of PTZ is not yet evident at age 6 weeks but clearly evident at age 10 weeks in mGluR7 homozygous but not in heterozygous littermates as shown in the table below.

mice (mGluR7 -/-, +/-) = assay: EEG recording with surface electrodes before and after PTZ injection; type: in vivo; conditions: PTZ 40 mg/kg
Description: In addition, two mGluR7−/− and two mGluR7+/− mice were equipped with surface electrodes to record EEGs before and after injection of 40 mg/kg PTZ.

[2] = system: synaptic transmission in the Schaffer collateral-commissural pathway; assay: L-AP4 depression of synaptic transmission, field EPSP recordings in hippocampal CA1 slices; type: cell-based, mice; conditions: L-AP4 1 mM
Description: To investigate the possible functions of mGlu7 electrophysiological experiments are performed in the CA1 region of the hippocampus, a region rich in mGlu7. […] L-AP4 (1 mM) is therefore applied to wild-type and mGlu7^−/− mice. […] However, all three patterns are seen in both wild-type and mutant mice. On average there is no significance difference in the actions of L-AP4 between groups; the peak L-AP4 induced depressions for wild-type and mutant mice are 40±10% (n=15) and 33±10% (n=14), respectively (P>0.05). Furthermore, no statistically significant differences are seen in intrinsic or synaptic properties between wild-type and mutant mice. Also, paired-pulse facilitation is similar between both groups. Thus, the facilitation ratio obtained, using an interpulse interval of 50 ms, is 1.49±0.03 and 1.45±0.04 for wild-type (n=9) and mutant (n=9) mice, respectively (P>0.05).
Since certain members of the mGlu family have been implicated in the generation of LTP in area CA1, the ability of wild-type and mutant mice to support this form of synaptic plasticity is compared as follows. […]
There are no apparent differences in low frequency synaptic transmission between the two groups of mice. […] Statistical significance is determined using a repeated measures ANOVA test and unpaired Students t-tests. […]

mGlu7 = mGlu7 (Rattus norvegicus, UniProt P35400); conditions: high concentrations of L-AP4, e.g. 1 mM, recombinant systems; cited from earlier work
mGlu7, sequence (P35400 35-915): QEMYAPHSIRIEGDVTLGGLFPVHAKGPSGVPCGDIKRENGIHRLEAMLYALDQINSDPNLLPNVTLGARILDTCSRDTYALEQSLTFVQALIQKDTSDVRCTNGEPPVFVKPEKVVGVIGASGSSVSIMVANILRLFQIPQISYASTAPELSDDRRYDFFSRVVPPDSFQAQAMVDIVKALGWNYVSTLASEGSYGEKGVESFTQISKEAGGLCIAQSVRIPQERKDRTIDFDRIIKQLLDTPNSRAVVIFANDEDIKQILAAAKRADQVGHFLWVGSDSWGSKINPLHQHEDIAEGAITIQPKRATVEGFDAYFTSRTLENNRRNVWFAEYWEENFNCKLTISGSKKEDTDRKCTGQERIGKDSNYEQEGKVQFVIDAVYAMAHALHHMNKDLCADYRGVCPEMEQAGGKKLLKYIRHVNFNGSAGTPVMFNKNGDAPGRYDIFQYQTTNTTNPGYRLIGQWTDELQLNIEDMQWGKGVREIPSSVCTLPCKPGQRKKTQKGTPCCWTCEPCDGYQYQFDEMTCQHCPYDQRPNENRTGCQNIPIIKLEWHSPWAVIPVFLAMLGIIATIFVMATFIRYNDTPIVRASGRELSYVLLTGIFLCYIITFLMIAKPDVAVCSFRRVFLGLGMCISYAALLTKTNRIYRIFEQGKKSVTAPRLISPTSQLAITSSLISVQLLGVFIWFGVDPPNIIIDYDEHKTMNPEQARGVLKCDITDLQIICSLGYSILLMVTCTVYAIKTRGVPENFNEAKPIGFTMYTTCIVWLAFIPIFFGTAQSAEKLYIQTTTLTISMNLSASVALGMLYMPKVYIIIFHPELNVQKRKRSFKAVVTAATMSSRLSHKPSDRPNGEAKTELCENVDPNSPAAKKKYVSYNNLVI

[3] = system: synaptic transmission in the Schaffer collateral-commissural pathway; conditions: 1 mM L-AP4, Schaffer collateral-commissural pathway, literature; cited from earlier work

SMILES: C1CCc2nnnn2CC1 [PTZ, Pentylenetetrazol]
- mice with induced seizures ([1]; homozygous mGluR7 knockout mice, age 9 months): 9 out of 9
- Clonic activity ([1]; mGluR7 +/- heterozygote mice, per animal): 3′
- mice with clonic seizures ([1]; mGluR7+/- mice): 1 out of 9
- Clonic activity ([1]; mGluR7 -/- mice, age 6 weeks, per animal): 6′
- Clonic activity ([1]; mGluR7 -/- mice, age 10 weeks, per animal): 2′ (2×) and 4′ (4×)
- Clonic activity ([1]; mGluR7 -/- mice, per animal): 2′ and 15′
- Exitus ([1]; mGluR7 -/- mice, per animal): 4′ (2×) and 12′ and 11′ and 6′
- Tonic activity ([1]; mGluR7 -/- mice, per animal): 3′ (2×) and 12′ and 2′ and 4′ and 6′
- mice with induced seizures ([1]; wild type mice (mGluR7+/+)): None of 9
- seizures following injection ([1]; wild type non-transgenic mice tested in parallel with the 6 and 10 week experiments): no seizures
- EEG after PTZ injection (mice (mGluR7 -/-, +/-); homozygous mGluR7 knockout mice): typical signals reminiscent of seizure activity
- EEG after PTZ injection (mice (mGluR7 -/-, +/-); mGluR7+/- mice): no such activity developed

SMILES: N[C@@H](CCP(=O)(O)O)C(=O)O [L-AP4, (S)-2-amino-4-phosphonobutanoate]
- peak L-AP4 induced depression ([2]; mutant (mGlu7 -/-) mice, n=14): 33±10%
- peak L-AP4 induced depression ([2]; wild-type mice, n=15): 40±10%
- activation of mGlu7 (mGlu7): can activate mGlu7
- effect on synaptic transmission [3]: can depress synaptic transmission
